Reference: patent EP4653431A1, “PYRAZOLE DERIVATIVE, AND PHARMACEUTICALLY ACCEPTABLE SALT, STEREOISOMER, PHARMACEUTICAL COMPOSITION AND USE THEREOF” (Starg (Wuhan) Pharmaceutical Technology Co., Ltd, priority 2023, dated 2024)
Structures can show the parent of a compound that is named as a salt. Where two headings read alike, the source gives them in different places.

Legend:
T-47D cells = assay: In vitro T-47D cell viability assay (CellTiter-Glo); type: cell-based; details: Homo sapiens, T47D, 168 h, 7 days incubation
Experimental: (§1) 1640 medium, fetal bovine serum, and penicillin/streptomycin antibiotics were purchased from Wisent. CellTiter-Glo (cell viability chemiluminescence assay reagent) was purchased from Promega. The T-47D cell line was purchased from Nanjing Cobioer Biosciences Co., Ltd. Envision multimode plate reader (PerkinElmer) was used.
T-47D cells were seeded into a white 384-well plate, with 40 µL of cell suspension containing 300 T-47D cells per well. The cell plate was incubated overnight in a CO2 incubator.
(§2) The test compound was serially diluted 5-fold using a multichannel pipette to the 8th concentration, i.e., from 2000 µM to […]. The experiment was set up with duplicate wells. 78 µL of culture medium was added to an intermediate plate, and 2 µL per well of the gradient-diluted compound was transferred to the corresponding position in the intermediate plate. After mixing, 10 µL per well of the mixture was transferred to the cell plate. The concentration range of the compound transferred to the cell plate was from 10 µM to 0.026 nM. The cell plate was incubated in a CO2 incubator for 7 days. Another cell plate was prepared, and the signal value was read on the day of compound addition to serve as the maximum value (Max in the equation below) for data analysis. 10 µL per well of CellTiter-Glo reagent was added to the cell plate, and the cell plate was incubated at room temperature for 10 minutes to stabilize the luminescence signal. The signal was read using the Envision multimode plate reader.
10 µL per well of CellTiter-Glo reagent was added to the cell plate, and the cell plate was incubated at room temperature for 10 minutes to stabilize the luminescence signal. The signal was read using the Envision multimode plate reader.
(§3) The raw data were converted to inhibition rates using the equation (Sample-Min)/(Max-Min)×100%. The IC50 value was obtained by fitting the data to a four-parameter curve (using log(inhibitor) vs. response -- Variable slope model in GraphPad Prism). Table 1 provides the inhibitory activity of the compounds of the present application against T-47D cell proliferation.

CDK1/cyclin B1 = molecular target: T1, CDK1/cyclin B1 (Homo sapiens, UniProt P06493); assay: In vitro CDK1/cyclin B1 enzyme activity assay (TR-FRET); type: biochemical
T1 construct: purchased Carna Biosciences
T1 sequence (P06493 whole entry): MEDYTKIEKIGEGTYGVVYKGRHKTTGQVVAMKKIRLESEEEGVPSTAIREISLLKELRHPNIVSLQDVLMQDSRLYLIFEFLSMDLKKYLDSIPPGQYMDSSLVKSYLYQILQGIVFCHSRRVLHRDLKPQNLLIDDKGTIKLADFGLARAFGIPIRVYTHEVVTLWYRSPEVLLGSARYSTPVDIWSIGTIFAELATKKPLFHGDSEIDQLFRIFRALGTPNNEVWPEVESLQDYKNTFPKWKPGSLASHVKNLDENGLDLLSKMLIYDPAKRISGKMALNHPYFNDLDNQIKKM
T1 sequence (P14635 whole entry partner): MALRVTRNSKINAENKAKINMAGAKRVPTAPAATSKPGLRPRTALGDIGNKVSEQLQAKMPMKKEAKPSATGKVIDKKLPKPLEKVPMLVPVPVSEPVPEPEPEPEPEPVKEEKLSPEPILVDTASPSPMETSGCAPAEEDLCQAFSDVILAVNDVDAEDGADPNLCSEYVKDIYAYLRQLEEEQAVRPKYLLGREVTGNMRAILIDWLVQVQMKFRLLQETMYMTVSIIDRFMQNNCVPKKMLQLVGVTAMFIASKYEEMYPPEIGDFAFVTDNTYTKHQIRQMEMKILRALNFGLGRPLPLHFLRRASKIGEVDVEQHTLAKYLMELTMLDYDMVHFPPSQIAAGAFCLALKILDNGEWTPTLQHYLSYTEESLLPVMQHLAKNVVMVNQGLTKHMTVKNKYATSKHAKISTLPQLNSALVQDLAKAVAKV
Experimental: CDK1/cyclin B1 was purchased from Carna Biosciences. Ulight-4E-BP1 peptide, Eu-anti-phospho-tyrosine antibody, and 1X detection buffer were purchased from PerkinElmer. High-purity ATP was purchased from Promega. EDTA was purchased from Sigma. Nivo multimode plate reader (PerkinElmer) was used.
Preparation of Kinase Buffer Solution: The kinase buffer solution consisted 50 mM HEPES, 1 mM EDTA, 10 mM MgCl2, and 0.01% Brij-35, with pH of 7.4.
(§4) The stop solution was prepared by mixing 100 µL of 1 M EDTA stock solution with […] of 1X detection buffer solution and 1725 µL of distilled water.
The enzyme, Ulight-4E-BP1 peptide, ATP, and the inhibitor were diluted using the kinase buffer solution.
The Eu-anti-phospho-tyrosine antibody was diluted to a concentration of 8 nM/L using the detection buffer solution.
The final concentration of DMSO was 4%, and the experiment was set up with duplicate wells. […] The reaction system was incubated at 25 °C for 60 minutes. After the reaction, 5 µL of the stop solution was added to each well, and further reacted at 25 °C for 5 minutes to terminate the reaction. Then 5 µL of Eu-anti-phospho-tyrosine antibody dilution was added to each well, and the mixture was incubated at 25 °C for 60 minutes.
The IC50 value was obtained by fitting the data to a four-parameter curve (using log(inhibitor) vs. response -- Variable slope model in GraphPad Prism).

CDK2/cyclin E1 = molecular target: T2, CDK2/cyclin E1 (Homo sapiens, UniProt P24941); assay: In vitro CDK2/cyclinE enzyme activity assay (TR-FRET); type: biochemical; details: CDK2/cyclin E1, 1 mM ATP, 120 min at 25 °C
T2 construct: purchased SignalChem
Experimental: CDK2/cyclin E1 was purchased from SignalChem. Ulight-4E-BP1 peptide, Eu-anti-phospho-tyrosine antibody, and 1X detection buffer solution were purchased from PerkinElmer. High-purity adenosine triphosphate (ATP) was purchased from Promega. Ethylenediaminetetraacetic acid (EDTA) was purchased from Sigma. Nivo multimode plate reader (PerkinElmer) was used.
Preparation of Kinase Buffer Solution: The kinase buffer solution consisted 50 mM HEPES, 1 mM EDTA, 10 mM MgCl2, and 0.01% Brij-35, with pH of 7.4. 2.38 g HEPES, 58 mg EDTA, 406 mg MgCl2, and 20 mg Brij-35 were added to 200 mL buffer, and the pH was adjusted to 7.4.
as §4
The enzyme, Ulight-4E-BP1 peptide, ATP, and the inhibitor were diluted using the kinase buffer solution. The Eu-anti-phospho-tyrosine antibody was diluted to a concentration of 8 nM/L using the detection buffer solution. The test compound was serially diluted 5-fold using a multichannel pipette to the 8th concentration, i.e., from 4 µM to 0.0512 nM. The final concentration of DMSO was 4%, and the experiment was set up with duplicate wells. 2.5 µL of each gradient concentration of the inhibitor, 5 µL of CDK2/cyclin E1 enzyme (10 ng), and 2.5 µL of a mixture of substrate and ATP (4 mM ATP, 100 nM Ulight-4E-BP1 peptide) were added to a microplate, resulting in a final concentration gradient of the compound from 1 µM to 0.0128 nM, with final ATP and substrate concentrations of 1 mM and 25 nM, respectively. The reaction system was incubated at 25 °C for 120 minutes. After the reaction, 5 µL of the stop solution was added to each well, and further reacted at 25 °C for 5 minutes to terminate the reaction. Then 5 µL of Eu-anti-phospho-tyrosine antibody dilution was added to each well, and the mixture was reacted at 25 °C for 60 minutes. Data were collected using the PerkinElmer Nivo multimode plate reader in TR-FRET mode (excitation wavelength: 320 nm; emission wavelengths: 615 nm and 665 nm).
The raw data were converted to inhibition rates according to the equation (Sample-Min)/(Max-Min)×100%. The IC50 value was obtained by fitting the data to a four-parameter curve (using log(inhibitor) vs. response -- Variable slope model in GraphPad Prism).

OVCAR-3 cells = assay: In vitro OVCAR-3 cell viability assay (CellTiter-Glo); type: cell-based; details: Homo sapiens, OVCAR-3, 168 h, 7 days incubation
Experimental: as §1, with “OVCAR-3” for “T-47D”
OVCAR-3 cells were seeded into a white 384-well plate, with 40 µL of cell suspension containing 300 OVCAR-3 cells per well. The cell plate was incubated overnight in a CO2 incubator.
as §2, with “the” for “the Envision”
10 µL per well of CellTiter-Glo reagent was added to the cell plate, and the cell plate was incubated at room temperature for 10 minutes to stabilize the luminescence signal. The signal was read using the multimode plate reader.
as §3, with “OVCAR-3” for “T-47D”

[1] = Pharmacokinetic study, oral and intravenous administration in mice; parameters: species or system ICR mice; details: mouse, in vivo, ICR male mice; for AUC(0-t): read-out: Area under plasma concentration-time curve AUC0-last
Experimental: This study used ICR male mice as test animals. The plasma concentrations of the test compounds and the reference compound in mice were quantitatively determined at different time points using the LC-MS/MS method following intravenous injection or oral administration to evaluate the pharmacokinetic characteristics of the test compounds in mice.
ICR mice (male, 20-30 g, 6-8 weeks old, Beijing Charles River).
A clear solution of the test compound was administered to ICR mice (fasted overnight or fed) via tail vein injection or oral gavage. For intravenous injection, blood samples (50 µL) were collected via cheek puncture at 0 h (pre-dose) and at 0.083, 0.25, 0.5, 1, 2, 4, 6, 8, and 24 h post-dose into anticoagulant tubes containing sodium heparin. The mixtures were thoroughly vortexed at 4 °C and centrifuged at 6000 rpm for 3 minutes. For oral gavage, blood samples were collected via cheek puncture at 0 h (pre-dose) and at 0.083, 0.25, 1, 2, 4, 6, 8, and 24 h post-dose into anticoagulant tubes containing sodium heparin. The mixtures were vortexed thoroughly, and centrifuged at 6000 rpm for 3 minutes. Plasma drug concentrations were determined using the LC-MS/MS method. Pharmacokinetic parameters were calculated using Phoenix WinNonlin 8.2.0 pharmacokinetic software with a non-compartmental model and linear-logarithmic trapezoidal rule.

[2] = CDK1/cyclin B1, 1 mM ATP, 60 min at 25 °C, Table 1, read-out: CDK1 IC50
[3] = exact values stated in the text below Table 1, read-out: IC50 against CDK1

SMILES | IC50 (T-47D cells) [nM] | IC50 (CDK1/cyclin B1; [2]) [nM] | IC50 (CDK2/cyclin E1) [nM] | IC50 (OVCAR-3 cells) [nM] | IC50 (CDK1/cyclin B1; [3]) [nM] | Vd ([1]; intravenous administration, 5 mg/Kg, read-out: Apparent volume of distribution Vdss) [L/kg] | AUC(0-t) ([1]; intravenous administration, 5 mg/Kg) [ng·h/mL] | clearance ([1]; intravenous administration, 5 mg/Kg, read-out: Clearance CL) [mL/min/kg] | half-life ([1]; intravenous administration, 5 mg/Kg, read-out: Half-life T1/2 (converted)) [h] | bioavailability ([1]; oral 30 mg/Kg vs intravenous 5 mg/Kg, read-out: Bioavailability F) [%] | AUC(0-t) ([1]; oral administration, 30 mg/Kg) [ng·h/mL] | Cmax ([1]; oral administration, 30 mg/Kg, read-out: Peak concentration Cmax) [ng/mL] | Tmax ([1]; oral administration, 30 mg/Kg, read-out: Time to peak Tmax) [h]
CNOCc1nn2ccnc(Nc3cc([C@H]4CC[C@@H](OC(=O)NC(C)C)C4)[nH]n3)c2c1F [Hydrochloride salt of Compound 7] | 492 | > 1000 | 9.5 | 140 | > 10000 |  |  |  |  |  |  |  | 
COCc1cc(C(=O)Nc2cc([C@H]3CC[C@@H](OC(=O)NC(C)C)C3)[nH]n2)n(C)n1 [PF-07104091, reference compound] | 377 | 521 |  | 172 |  | 11.8 | 1640 | 50.3 | 2.68 | 76.2 | 7520 | 6320 | 0.25

Now from value to compound, other results behind:

IC50 (T-47D cells) [nM] | IC50 (CDK1/cyclin B1; [2]) [nM] | IC50 (CDK2/cyclin E1) [nM] | IC50 (OVCAR-3 cells) [nM] | IC50 (CDK1/cyclin B1; [3]) [nM] | SMILES | Vd ([1]; intravenous administration, 5 mg/Kg, read-out: Apparent volume of distribution Vdss) [L/kg] | AUC(0-t) ([1]; intravenous administration, 5 mg/Kg) [ng·h/mL] | clearance ([1]; intravenous administration, 5 mg/Kg, read-out: Clearance CL) [mL/min/kg] | half-life ([1]; intravenous administration, 5 mg/Kg, read-out: Half-life T1/2 (converted)) [h] | bioavailability ([1]; oral 30 mg/Kg vs intravenous 5 mg/Kg, read-out: Bioavailability F) [%] | AUC(0-t) ([1]; oral administration, 30 mg/Kg) [ng·h/mL] | Cmax ([1]; oral administration, 30 mg/Kg, read-out: Peak concentration Cmax) [ng/mL] | Tmax ([1]; oral administration, 30 mg/Kg, read-out: Time to peak Tmax) [h]
239 | > 1000 | 7.6 | 75 |  | C=NOCc1nn2ccnc(Nc3cc([C@H]4CC[C@@H](OC(=O)NC(C)C)C4)[nH]n3)c2c1F [Compound 4] |  |  |  |  |  |  |  | 
293 | > 1000 | 3.8 | 90 | 1910 | CONCc1nn2ccnc(Nc3cc([C@H]4CC[C@@H](OC(=O)NC(C)C)C4)[nH]n3)c2c1C [Formate salt of compound 1] |  |  |  |  |  |  |  | 
383 | > 1000 | 4.2 | 187 | 1350 | CNOCc1nn2ccnc(Nc3cc([C@H]4CC[C@@H](OC(=O)NC(C)C)C4)[nH]n3)c2c1C [Hydrochloride salt of compound 3] |  |  |  |  |  |  |  | 
